{
  "source": "PubChem BioAssay AID220",
  "about": "(DTP/NCI, 2004)",
  "system": "CD8F1 mice, subcutaneous mammary adenocarcinoma, T/C%",
  "test": "NCI In Vivo Anticancer Drug Screen. Data for tumor model Mammary Adenocarcinoma CD8F1 (subcutaneous) in CD8F1",
  "details": "higher = larger tumour",
  "summary_of_the_method": "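Ratio of treated to vehicle-control outcome, based on either survival or tumor size, in mice bearing transplantable tumors given the test compound.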",
  "key": {"[1]": {"details": "endpoint: median tumor weight change, dose: 7.8 mg/kg/injection, schedule: Q01DX001 (ip), vehicle: saline"}, "[2]": {"details": "endpoint: median tumor weight change, dose: 31.25 mg/kg/injection, schedule: Q01DX001 (ip), vehicle: saline"}},
  "note": "Where “and” joins values, the source holds several entries; their conditions need not be identical. Equal entries are not always repeated. Results filed as inconclusive are left out.",
  "data": [
    {"smiles": "COc1cc([C@@H]2c3cc4c(cc3[C@@H](OC3OC5CO[C@@H](c6cccs6)OC5C(O)C3O)[C@H]3COC(=O)[C@H]23)OCO4)cc(OC)c1O", "note": "(some centres undefined)", "values": [
      {"measurement": "T/C", "setting": "endpoint: median tumor weight (est.), dose: 2.0 mg/kg/injection, schedule: Q07DX005 (ip), vehicle: suspension in saline", "result": "90 % of control and 103 % of control"},
      {"measurement": "T/C", "setting": "endpoint: median tumor weight (est.), dose: 4.0 mg/kg/injection, schedule: Q07DX005 (ip), vehicle: saline", "result": "23 % of control"},
      {"measurement": "T/C", "setting": "endpoint: median tumor weight (est.), dose: 4.0 mg/kg/injection, schedule: Q07DX005 (ip), vehicle: suspension in saline", "result": "87 % of control and 100 % of control"},
      {"measurement": "T/C", "setting": "endpoint: median tumor weight (est.), dose: 8.0 mg/kg/injection, schedule: Q07DX005 (ip), vehicle: suspension in saline", "result": "81 % of control and 92 % of control"},
      {"measurement": "T/C", "setting": "endpoint: median tumor weight (est.), dose: 16.0 mg/kg/injection, schedule: Q07DX005 (ip), vehicle: saline", "result": "47 % of control"},
      {"measurement": "T/C", "setting": "endpoint: median tumor weight (est.), dose: 32.0 mg/kg/injection, schedule: Q07DX005 (ip), vehicle: saline", "result": "25 % of control"},
      {"measurement": "T/C", "setting": "endpoint: median tumor weight (est.), dose: 32.0 mg/kg/injection, schedule: Q07DX005 (ip), vehicle: suspension in saline", "result": "51 % of control and 57 % of control"},
      {"measurement": "T/C", "setting": "endpoint: median tumor weight change, dose: 20.0 mg/kg/injection, schedule: Q01DX001 (ip), vehicle: suspension in saline", "result": "96 % of control"},
      {"measurement": "T/C", "setting": "endpoint: median tumor weight change, dose: 40.0 mg/kg/injection, schedule: Q01DX001 (ip), vehicle: suspension in saline", "result": "74 % of control"},
      {"measurement": "T/C", "setting": "endpoint: median tumor weight change, dose: 80.0 mg/kg/injection, schedule: Q01DX001 (ip), vehicle: suspension in saline", "result": "91 % of control"},
      {"measurement": "T/C", "setting": "endpoint: median tumor weight change, dose: 160.0 mg/kg/injection, schedule: Q01DX001 (ip), vehicle: suspension in saline", "result": "117 % of control"},
      {"measurement": "T/C", "setting": "endpoint: median tumor weight change, dose: 320.0 mg/kg/injection, schedule: Q01DX001 (ip), vehicle: suspension in saline", "result": "80 % of control"}
    ]},
    {"smiles": "COc1cc2cc3cc4cc(OC)c(OC)cc4c(C)[n+]3cc2cc1OC", "note": "(tested in a mixture with another compound)", "values": [
      {"measurement": "T/C", "setting": "endpoint: median tumor weight (est.), dose: 12.5 mg/kg/injection, schedule: Q07DX005 (ip), vehicle: saline", "result": "68 % of control"},
      {"measurement": "T/C", "setting": "endpoint: median tumor weight (est.), dose: 25.0 mg/kg/injection, schedule: Q07DX005 (ip), vehicle: saline", "result": "88 % of control"},
      {"measurement": "T/C", "setting": "endpoint: median tumor weight (est.), dose: 50.0 mg/kg/injection, schedule: Q07DX005 (ip), vehicle: saline", "result": "82 % of control"},
      {"measurement": "T/C", "setting": "endpoint: median tumor weight (est.), dose: 100.0 mg/kg/injection, schedule: Q07DX005 (ip), vehicle: saline", "result": "90 % of control"},
      {"measurement": "T/C", "setting": "endpoint: median tumor weight (est.), dose: 200.0 mg/kg/injection, schedule: Q07DX005 (ip), vehicle: saline", "result": "39 % of control"}
    ]},
    {"smiles": "CS(=O)(=O)[O-].CS(=O)(=O)[O-].NC1CCCCC1N.[Pt+4]", "note": "(centres undefined)", "values": [
      {"measurement": "T/C", "setting": "endpoint: median tumor weight (est.), dose: 0.63 mg/kg/injection, schedule: Q07DX005 (ip), vehicle: dextrose", "result": "96 % of control"},
      {"measurement": "T/C", "setting": "endpoint: median tumor weight (est.), dose: 5.0 mg/kg/injection, schedule: Q07DX005 (ip), vehicle: dextrose", "result": "4 % of control and 8 % of control"}
    ]},
    {"smiles": "CCCCCCCCCCCCCCCCCCOCC(COP(=O)([O-])OCC[N+](C)(C)C)OC", "note": "(centres undefined)", "values": [
      {"measurement": "T/C", "setting": "endpoint: median tumor weight change, dose: 1.95 mg/kg/injection, schedule: Q01DX001 (ip), vehicle: saline", "result": "97 % of control"},
      {"measurement": "T/C", "setting": "endpoint: median tumor weight change, dose: 3.9 mg/kg/injection, schedule: Q01DX001 (ip), vehicle: saline", "result": "67 % of control"},
      {"measurement": "T/C", "setting": "[1]", "result": "95 % of control"},
      {"measurement": "T/C", "setting": "endpoint: median tumor weight change, dose: 15.62 mg/kg/injection, schedule: Q01DX001 (ip), vehicle: saline", "result": "48 % of control"},
      {"measurement": "T/C", "setting": "endpoint: median tumor weight change, dose: 31.0 mg/kg/injection, schedule: Q01DX001 (ip), vehicle: suspension in saline", "result": "79 % of control"},
      {"measurement": "T/C", "setting": "[2]", "result": "100 % of control"},
      {"measurement": "T/C", "setting": "endpoint: median tumor weight change, dose: 62.0 mg/kg/injection, schedule: Q01DX001 (ip), vehicle: suspension in saline", "result": "75 % of control"}
    ]},
    {"smiles": "CC1=C(O)C(=O)[C@@H]2O[C@@H]2C1=O", "values": [
      {"measurement": "T/C", "setting": "[1]", "result": "54 % of control"},
      {"measurement": "T/C", "setting": "endpoint: median tumor weight change, dose: 15.6 mg/kg/injection, schedule: Q01DX001 (ip), vehicle: saline", "result": "81 % of control"},
      {"measurement": "T/C", "setting": "[2]", "result": "48 % of control"}
    ]},
    {"smiles": "Brc1ccc(C[N+]23CN4CN(CN(C4)C2)C3)cc1", "values": [
      {"measurement": "T/C", "setting": "endpoint: median tumor weight (est.), dose: 25.0 mg/kg/injection, schedule: Q07DX005 (ip), vehicle: saline with Tween-80", "result": "90 % of control"},
      {"measurement": "T/C", "setting": "endpoint: median tumor weight (est.), dose: 50.0 mg/kg/injection, schedule: Q07DX005 (ip), vehicle: saline with Tween-80", "result": "96 % of control"},
      {"measurement": "T/C", "setting": "endpoint: median tumor weight (est.), dose: 100.0 mg/kg/injection, schedule: Q07DX005 (ip), vehicle: saline with Tween-80", "result": "180 % of control"}
    ]},
    {"smiles": "O=C1C(NCC(O)CO)=C(N2CC2)C(=O)C(NCC(O)CO)=C1N1CC1", "note": "(centres undefined)", "values": [
      {"measurement": "T/C", "setting": "endpoint: median tumor weight change, dose: 4.0 mg/kg/injection, schedule: Q01DX001 (ip), vehicle: saline", "result": "123 % of control"},
      {"measurement": "T/C", "setting": "endpoint: median tumor weight change, dose: 4.0 mg/kg/injection, schedule: Q01DX001 (ip), vehicle: suspension in saline", "result": "55 % of control"},
      {"measurement": "T/C", "setting": "endpoint: median tumor weight change, dose: 8.0 mg/kg/injection, schedule: Q01DX001 (ip), vehicle: saline", "result": "19 % of control"},
      {"measurement": "T/C", "setting": "endpoint: median tumor weight change, dose: 8.0 mg/kg/injection, schedule: Q01DX001 (ip), vehicle: suspension in saline", "result": "35 % of control (2×) and 55 % of control"},
      {"measurement": "T/C", "setting": "endpoint: median tumor weight change, dose: 16.0 mg/kg/injection, schedule: Q01DX001 (ip), vehicle: saline", "result": "3 % of control"}
    ]},
    {"smiles": "Cc1c2cc[n+](CCN3CCCCC3)cc2c(C)c2c1[nH]c1ccc(O)cc12", "values": [
      {"measurement": "T/C", "setting": "endpoint: median tumor weight change, dose: 7.81 mg/kg/injection, schedule: Q01DX001 (ip), vehicle: suspension in saline", "result": "83 % of control"},
      {"measurement": "T/C", "setting": "endpoint: median tumor weight change, dose: 15.6 mg/kg/injection, schedule: Q01DX001 (ip), vehicle: suspension in saline", "result": "102 % of control and 116 % of control"}
    ]}
  ]
}
